Assay results from patent publication US6685617B1, “Inhibitors of α4β1 mediated cell adhesion” (Pharmacia & Upjohn Company, priority 1998, dated 2004).

Experiments:
[1] = target: T1, α4β1 integrin (Jurkat T-cell adhesion to IL-1 stimulated endothelial cell monolayers) (Homo sapiens, UniProt P05556+P13612); experiment: Jurkat-endothelial cell adhesion assay (Jurkat EC); format: cell-based; conditions: Jurkat cells on IL-1 stimulated human umbilical vein endothelial cells; read-out: JK/EC (Jurkat EC Assay IC50 value range)
T1 construct: a T-cell line, Jurkat, known to express the α4β1 integrin; host or cells: Jurkat T-cell line
T1 sequence (P13612 34-1032): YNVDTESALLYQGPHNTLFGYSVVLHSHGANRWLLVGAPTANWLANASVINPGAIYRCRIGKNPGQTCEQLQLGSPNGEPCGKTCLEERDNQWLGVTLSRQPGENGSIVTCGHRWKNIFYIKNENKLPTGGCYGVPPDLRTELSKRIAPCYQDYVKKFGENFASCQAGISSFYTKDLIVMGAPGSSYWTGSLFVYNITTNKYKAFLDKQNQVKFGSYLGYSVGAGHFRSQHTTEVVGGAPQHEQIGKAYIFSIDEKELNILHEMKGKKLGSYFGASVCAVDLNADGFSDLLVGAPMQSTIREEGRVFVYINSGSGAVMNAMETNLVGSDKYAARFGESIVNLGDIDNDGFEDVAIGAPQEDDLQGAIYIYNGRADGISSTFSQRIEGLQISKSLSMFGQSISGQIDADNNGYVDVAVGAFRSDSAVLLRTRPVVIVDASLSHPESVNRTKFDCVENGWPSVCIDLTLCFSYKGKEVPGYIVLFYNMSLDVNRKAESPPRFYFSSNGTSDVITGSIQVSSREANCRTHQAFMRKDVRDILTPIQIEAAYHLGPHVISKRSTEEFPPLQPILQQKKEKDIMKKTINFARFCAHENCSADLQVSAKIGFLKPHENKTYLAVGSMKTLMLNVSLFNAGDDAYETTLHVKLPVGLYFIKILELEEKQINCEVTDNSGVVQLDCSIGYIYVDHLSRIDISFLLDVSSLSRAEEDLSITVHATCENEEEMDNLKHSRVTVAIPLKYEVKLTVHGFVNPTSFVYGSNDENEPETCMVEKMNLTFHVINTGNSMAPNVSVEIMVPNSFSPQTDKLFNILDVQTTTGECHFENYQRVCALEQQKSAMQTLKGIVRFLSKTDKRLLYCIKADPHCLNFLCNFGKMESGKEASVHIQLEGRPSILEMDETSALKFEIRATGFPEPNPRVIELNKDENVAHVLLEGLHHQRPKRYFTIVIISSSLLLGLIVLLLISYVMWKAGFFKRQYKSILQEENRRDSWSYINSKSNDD
T1 sequence (P05556 21-798): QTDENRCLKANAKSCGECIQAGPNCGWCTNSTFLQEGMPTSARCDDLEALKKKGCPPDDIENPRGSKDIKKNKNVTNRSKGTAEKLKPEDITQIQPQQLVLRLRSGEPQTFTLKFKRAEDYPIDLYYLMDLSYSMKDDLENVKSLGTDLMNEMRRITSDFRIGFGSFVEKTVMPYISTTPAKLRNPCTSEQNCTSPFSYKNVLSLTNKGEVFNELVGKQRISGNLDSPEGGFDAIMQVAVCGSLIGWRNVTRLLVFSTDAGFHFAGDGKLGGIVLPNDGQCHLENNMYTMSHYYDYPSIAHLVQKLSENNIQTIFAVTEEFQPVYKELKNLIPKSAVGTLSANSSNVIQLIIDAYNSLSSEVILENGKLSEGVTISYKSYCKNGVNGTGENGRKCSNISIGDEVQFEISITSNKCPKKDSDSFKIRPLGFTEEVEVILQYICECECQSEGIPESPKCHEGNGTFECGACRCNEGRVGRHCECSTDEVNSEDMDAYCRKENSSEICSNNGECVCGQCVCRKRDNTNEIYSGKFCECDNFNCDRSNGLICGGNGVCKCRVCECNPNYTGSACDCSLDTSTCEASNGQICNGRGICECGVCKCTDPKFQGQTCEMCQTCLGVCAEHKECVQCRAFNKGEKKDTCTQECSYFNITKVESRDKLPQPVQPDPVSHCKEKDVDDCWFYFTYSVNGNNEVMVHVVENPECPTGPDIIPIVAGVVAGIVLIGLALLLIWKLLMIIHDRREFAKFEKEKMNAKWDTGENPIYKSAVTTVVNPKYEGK
Description: Jurkat-endothelial Cell Adhesion Assay:
The following assay established the activity of the present compounds in inhibiting β1-mediated cell adhesion in a representative in vitro system. This assay measures the adhesive interactions of a T-cell line, Jurkat, known to express the α4β1 integrin, to endothelial monolayers in the presence of test compounds. The test compounds were added in increasing concentrations to T-cells and then the T-cell compound mixture was added to IL-1 stimulated endothelial cell monolayers. The plates were incubated, washed and the percentage of attached cells was quantitated.
Human umbilical vein endothelial cells were purchased from Clonetics (San Diego, Calif.) at passage number 2. The cells were grown on 0.5% porcine skin gelatin pre-coated flasks (Sigma, St. Louis Mo.) in EGM-UV media (Clonetics, San Diego, Calif.) supplemented with 10% fetal bovine serum. Cells are refed every 2-3 days reaching confluence by day 4 to 6. […] The endothelial cells are not used following passage 6.
The T-cell line Jurkat was obtained from American Type Tissue Culture Collection (Rockville, Md.) and the cells were cultured in RPMI containing 10% fetal calf serum. The cells were washed twice in Hank's Balanced Salt Solution (HBSS) and resuspended in Dulbecco's Minimal Eagle's Media (DMEM) containing 2.5 mg/ml Human Serum Albumin (HSA). Jurkat cells (1×10^6 cells/ml) were stained with 10 ng/ml BCECF-AM (Molecular Probes, Eugene, Oreg.)) in HBSS without phenol red. The cells were loaded with BCECF for 60 minutes in the dark at 370C, washed 2 times, and resuspended in DMEM-HSA solution.
Confluent endothelial monolayers, grown in 96-well tissue culture plates, were stimulated for 4 hr. at 37° C. with 0.1 ng/ml (˜50 U/ml) recombinant IL-1 (Amgen, Thousand Oaks, Calif.). Following this incubation, the monolayers were washed twice with HBSS and 0.1 ml of DMEM−HSA solution was added. Jurkat cells (5×10^5 cells) were combined with the appropriate concentration of the test compound and 0.1 ml of the Jurkat cell-compound mixture was added to the endothelial cell monolayers. Generally, 100, 20, 5 and 1.25 μM compound concentrations were tested. […] The plates were placed on ice for 5 minutes to allow for Jurkat cell settling and the plates were incubated at 37° C. for 20 minutes. Following this incubation, the monolayers were washed twice with PBS containing 1 mM calcium chloride and 1 mM magnesium chloride and the plates were read using a Millipore Cytofluor 2300 (Marlboro, Mass.). Fluorescence in each well was measured as Arbitrary Fluorescence Units and percent adhesion in the absence of compound was adjusted to 100% and the % adhesion in the presence of compound was calculated. Monolayers were also fixed in 3% paraformaldehyde and evaluated microscopically to verify the adhesion. This procedure is a modification of a previously published method (Cardarelli et al., J. Biol. Chem. 269:18668-18673 (1994)).

[2] = target: T2, α4β1 integrin (Jurkat cell adhesion to immobilized CS-1 derived peptide CLHPGEILDVPST) (Homo sapiens, UniProt P05556+P13612); experiment: Jurkat-CS-1 assay; format: cell-based; conditions: Jurkat cells on CS-1 peptide coated plates; read-out: JK/CS-1 (Jurkat CS-1 Assay IC50 value range)
T2 construct: 100 μl of Jurkat cells (2.5×10^6 cells/ml) in DMEM plus BSA; host or cells: Jurkat T-cell line
T2 sequence (P13612 34-1032): as the sequence (P13612 34-1032) above
T2 sequence (P05556 21-798): as the sequence (P05556 21-798) above
Description: The CS-1 derived peptide, CLHPGEILDVPST, and the scrambled control peptide, CLHGPIELVSDPT, were synthesized on a Beckman 990 synthesizer using t-Boc methodology. The peptides were immobilized onto microtiter plates using the heterobifunctional crosslinker 3-(2-pyridyldithio)propionic acid N-hydroxysuccinimide ester (SPDP) as reported by Pierschbacher et al., Proc. Natl. Acad. USA, 80:1224-1227 (1983). Microtiter plates were coated with 20 μg/ml HSA for 2 hr. at room temperature, washed once with PBS and derivatized with 10 μg/ml SPDP for 1 hr. After washing, 100 μl of a 100 μg/ml cysteine containing peptide solution which had been recently dissolved was added to the wells and allowed to crosslink to the plates overnight at 4° C. Unbound peptide was removed from plates by washing with PBS. To block non-reacted sites, the plates are coated with 100 μl of a 2.5 mg/ml BSA solution in PBS for 1 hr. at 37° C. 100 μl of Jurkat cells (2.5×10^6 cells/ml) in DMEM plus BSA (2.5 mg/ml) was mixed with an appropriate concentration of the compound to be tested and the mixture was added to peptide coated dishes and incubated for 1 hr. at 37° C. Generally 100, 20, 5 and 1.25 μM concentrations of the compound were tested.
Following this incubation the plates were washed once with PBS and the attached cells were fixed with 3% paraformaldehyde in PBS and stained with 0.5% toluidine blue in 3.7% formaldehyde. The cells were stained overnight at room temperature and the optical density at 590 nm of toluidine blue stained cells was determined using a vertical pathway spectrophotometer to quantitate attachment (VMAX Kinetic Microplate Reader, Molecular Devices, Menlo Park, Calif.). This procedure is a modification of a previously published method (Cardarelli et al, J. Biol. Chem., 269:18668-18673 (1994) and Cardarelli et al, Proc. Natl. Acad. Sci. USA, 83:2647-2651 (1986)).

Compound | IC50 [1] [nM] | IC50 [2] [nM]
O=C(O)CCCC(=O)N1CSC[C@H]1C(=O)N[C@@H](Cc1ccc(NC(=O)c2c(Cl)cccc2Cl)cc1)C(=O)O (relative stereo) [Example 68, [R-(R*,S*)]-4-[[[1-Carboxy-2-[4-[(2,6-dichlorobenzoyl)amino]phenyl]ethyl]amino]carbonyl]-δ-oxo-3-thiazolidinepentanoic Acid] | ≥ 1000 | 50 to 750
CS(=O)(=O)N1CSC[C@@H]1C(=O)N[C@@H](Cc1ccc(OCc2c(Cl)cccc2Cl)cc1)C(=O)O [Example 51, O-[(2,6-Dichlorophenyl)methyl]-N-[[(4S)-3-(methylsulfonyl)-4-thiazolidinyl]carbonyl]-L-tyrosine] | 250 to 1000 | 50 to 750
O=C(Nc1ccc(C[C@H](NC(=O)[C@H]2CSCN2C(=O)N(CCO)CCO)C(=O)O)cc1)c1c(Cl)cccc1Cl [Example 58, N-[[(4S)-3-[[bis(2-Hydroxyethyl)amino]carbonyl]thiazoldinyl]carbonyl]-4-[(2,6-dichlorobenzoyl)amino]-L-phenylalanine] | ≤ 250 | ≤ 50
CC1(C)SC[C@H](C(=O)N[C@@H](Cc2ccc(NC(=O)c3c(Cl)cccc3Cl)cc2)C(=O)O)N1C(=O)CCC(=O)O (relative stereo) [Example 85, [S-(R*,R*)]-4-[[[1-Carboxy-2-[4-[(2,6-dichlorobenzoyl)amino]phenyl]ethyl]amino]carbonyl]-2,2-dimethyl-γ-oxo-3-thiazolidinebutanoic Acid] | ≤ 250 | ≤ 50
CCOC(=O)N1[C@@H](C(=O)N[C@@H](Cc2ccc(NC(=O)c3c(Cl)cccc3Cl)cc2)C(=O)O)CSC12CCCC2 (relative stereo) [Example 78, [S-(R*,R*)]-3-[[[1-Carboxy-2-[4-[(2,6-dichlorobenzoyl)amino]phenyl]ethyl]amino]carbonyl]-1-thia-4-azaspiro[4.4]nonane-4-carboxylic Acid 4-Ethyl Ester] | ≥ 1000 | 50 to 750
CC(=O)CCC(=O)N1CCCC(C(=O)N[C@@H](Cc2ccc(NC(=O)c3c(Cl)cccc3Cl)cc2)C(=O)O)C1 (stereo partly drawn) [Example 201] | ≥ 1000 | 50 to 750
O=C(O)c1cccc(C(=O)N2CSC[C@H]2C(=O)N[C@@H](Cc2ccc(NC(=O)c3c(Cl)cccc3Cl)cc2)C(=O)O)n1 [Example 240] | ≥ 1000 | 50 to 750
CC(C)(C)OC(=O)N1CSC[C@@H]1C(=O)N[C@@H](Cc1ccc(N(C(=O)c2c(Cl)cccc2Cl)C(=O)c2c(Cl)cccc2Cl)nc1)C(=O)O [Example 123, [S-(R*,R*)]-4-[[[[1-Carboxy-2-[2-[[bis-(2,6-dichlorobenzoyl)]amino]-5-pyridyl]]ethyl]amino]carbonyl]-3-thiazolidinecarboxylic Acid (1,1-Dimethylethyl)ester] | ≥ 1000 | ≥ 750
CC(C)(C)OC(=O)N1CSC[C@@H]1C(=O)N[C@H](Cc1ccc(NC(=O)c2c(Cl)cccc2Cl)cc1)C(=O)O (stereo in doubt) [Example 27, [S-(R*,S*)]-4-[[[1-Carboxy-2-[4-[(2,6-dichlorobenzoyl)amino]phenyl]ethyl]amino]carbonyl]-3-thiazolidinecarboxylic Acid 3-(1,1-Dimethylethyl)ester] | ≥ 1000 | ≥ 750
COC(=O)[C@H](Cc1ccc(NC(=O)c2c(Cl)cccc2Cl)cc1)NC(=O)[C@H]1CSCN1S(=O)(=O)c1ccccc1 [Example 46, 4-[(2,6-Dichlorobenzoyl)amino]-N-[[(4S)-3-(phenylsulfonyl)-4-thiazolidinyl]carbonyl]-L-phenylalanine Methyl Ester] | ≥ 1000 | ≥ 750
O=C(O)c1ccc(C(=O)N2CCCC[C@H]2C(=O)N[C@@H](Cc2ccc(NC(=O)c3c(Cl)cccc3Cl)cc2)C(=O)O)nc1 [Example 187] | ≥ 1000 | 50 to 750
CC(C)(C)OC(=O)N1CSCC1C(=O)NC(Cc1ccc(OCc2c(Cl)cccc2Cl)cn1)C(=O)O (stereo not drawn) [Example 121, [S-(R*,R*)]-4-[[[1-Carboxy-2-[3-[(2,6-dihlorophenyl)methoxy]-6-pyridyl]ethyl]amino]carbonyl]-3-thiazolidinecarboxylic Acid (1,1-Dimethylethyl)ester] | ≥ 1000 | 50 to 750
O=C(O)/C=C/C(=O)N1CCC[C@@H]1C(=O)N[C@@H](Cc1ccc(NC(=O)c2c(Cl)cccc2Cl)cc1)C(=O)O [Example 255] | ≥ 1000 | 50 to 750
O=C(O)/C=C\C(=O)N1CCC[C@H]1C(=O)N[C@@H](Cc1ccc(NC(=O)c2c(Cl)cccc2Cl)cc1)C(=O)O [Example 227] | ≥ 1000 | 50 to 750
O=C(O)c1cccc(C(=O)N2CCC[C@H]2C(=O)N[C@@H](Cc2ccc(NC(=O)c3c(Cl)cccc3Cl)cc2)C(=O)O)c1 [Example 235] | ≥ 1000 | 50 to 750
O=C(O)CCC(=O)N1CCCCC[C@H]1C(=O)N[C@@H](Cc1ccc(NC(=O)c2c(Cl)cccc2Cl)cc1)C(=O)O (relative stereo) [Example 157, [S-(R*,R*)]-2-[[[1-Carboxy-2-[4-[(2,6-dichlorobenzoyl)amino]phenyl]ethyl]amino]carbonyl]-hexahydro-γ-oxo-1H-azepine-1-butanoic Acid] | ≤ 250 | 50 to 750
O=C(Nc1ccc(C[C@H](NC(=O)[C@@H]2COCN2C(=O)OCc2ccccc2)C(=O)O)cc1)c1c(Cl)cccc1Cl [Example 125, [S-(R*,R*)]-4-[[[1-Carboxy-2-[4-[(2,6-dichlorobenzoyl)amino]phenyl]ethyl]amino]-carbonyl]-3-oxazolidinecarboxylic Acid 3-Phenylmethyl Ester] | 250 to 1000 | 50 to 750
O=C(Nc1ccc(C[C@H](NC(=O)[C@@H]2CCCN2C(=O)C2CCCC(C(=O)O)C2)C(=O)O)cc1)c1c(Cl)cccc1Cl (stereo partly drawn) [Example 230] | ≥ 1000 | 50 to 750
O=C(Nc1ccc(C[C@H](NC(=O)[C@@H]2CCCCN2C(=O)c2cccnc2)C(=O)O)cc1)c1c(Cl)cccc1Cl [Example 185] | ≤ 250 | ≤ 50
O=C(Nc1ccc(C[C@H](NC(=O)[C@H]2CCCCN2C(=O)c2cccnc2)C(=O)O)cc1)c1c(Cl)cccc1Cl [Example 252] | ≤ 250 | ≤ 50
CC1(C)N[C@H](C(=O)N[C@@H](Cc2ccc(NC(=O)c3c(Cl)cccc3Cl)cc2)C(=O)O)CS1 [Example 74, 4-[(2,6-Dichlorobenzoyl)amino]-N-[[(4R)-2,2-dimethyl-4-thiazolidinyl]carbonyl]-L-phenylalanine] | 250 to 1000 | 50 to 750
